Assay results from patent publication US20260374739A1, “SMALL MOLECULAR WEIGHT CHEMICAL COMPOUND TO ANTAGONIZE EPH-EPHRIN TETRAMERIZATION AND INHIBIT BIDIRECTIONAL SIGNALING” (THE BOARD OF REGENTS OF THE UNIVERSITY OF TEXAS SYSTEM, priority 2022, published 2026).
“And” between values parts separate entries of the source, which are not always exact repeats. Equal entries are not always repeated. Where two headings read alike, the source gives them in different places.

Assays:
EphrinB2-EphB2 = target: T1, EphrinB2-EphB2 (Homo sapiens, UniProt P29323); assay: Octet tetramerization inhibition, immobilized human EphrinB2 binding to 50 nM soluble human EphB2; settings: for disruption of unsurmountable tetramer: 0.8-3.2 μM
T1 construct: soluble human EphB1-His, EphB2-His, and EphB4-His ectodomains; commercially available human EphrinB1-Fc (EB1), EphrinB2-Fc (EB2), and EphrinB3-Fc (EB3) ectodomain proteins; purchased
T1 sequence (P29323 19-543 limits assumed): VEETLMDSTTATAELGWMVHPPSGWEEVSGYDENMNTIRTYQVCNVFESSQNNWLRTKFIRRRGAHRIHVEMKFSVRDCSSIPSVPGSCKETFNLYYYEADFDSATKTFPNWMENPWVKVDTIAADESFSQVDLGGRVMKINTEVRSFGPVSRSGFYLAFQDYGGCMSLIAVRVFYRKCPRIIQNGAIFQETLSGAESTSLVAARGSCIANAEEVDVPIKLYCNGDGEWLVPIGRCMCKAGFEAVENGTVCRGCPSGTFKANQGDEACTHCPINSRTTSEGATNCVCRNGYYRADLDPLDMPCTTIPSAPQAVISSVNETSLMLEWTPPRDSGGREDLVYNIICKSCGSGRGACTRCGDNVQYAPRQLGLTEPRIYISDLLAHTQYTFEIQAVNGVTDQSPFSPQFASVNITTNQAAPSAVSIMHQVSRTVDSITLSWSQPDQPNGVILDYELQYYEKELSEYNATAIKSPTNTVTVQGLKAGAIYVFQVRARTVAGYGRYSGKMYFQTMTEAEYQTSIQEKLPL

EphrinB2-EphB1 = target: T2, EphrinB2-EphB1 (Homo sapiens, UniProt P54762); assay: Octet 80 sec association/500 sec dissociation, immobilized human EphrinB2-Fc binding to soluble human EphB1-His; settings: for EphB1 Inhibition Percent, Inhibition of Association ONLY: at 3.2 μM and 80 seconds; for EphB1 Inhibition Percent, Inhibition of Association ONLY / EphB1 Inhibition Percent, Inhibition of Association-Dissociation: immobilized human EphrinB2, 25 nM soluble human EphB1; for EphB1 Inhibition Percent, Inhibition of Association-Dissociation: at 3.2 μM and 580 seconds
T2 construct: soluble human EphB1-His, EphB2-His, and EphB4-His ectodomains; commercially available human EphrinB1-Fc (EB1), EphrinB2-Fc (EB2), and EphrinB3-Fc (EB3) ectodomain proteins; purchased
T2 sequence (P54762 18-540 limits assumed): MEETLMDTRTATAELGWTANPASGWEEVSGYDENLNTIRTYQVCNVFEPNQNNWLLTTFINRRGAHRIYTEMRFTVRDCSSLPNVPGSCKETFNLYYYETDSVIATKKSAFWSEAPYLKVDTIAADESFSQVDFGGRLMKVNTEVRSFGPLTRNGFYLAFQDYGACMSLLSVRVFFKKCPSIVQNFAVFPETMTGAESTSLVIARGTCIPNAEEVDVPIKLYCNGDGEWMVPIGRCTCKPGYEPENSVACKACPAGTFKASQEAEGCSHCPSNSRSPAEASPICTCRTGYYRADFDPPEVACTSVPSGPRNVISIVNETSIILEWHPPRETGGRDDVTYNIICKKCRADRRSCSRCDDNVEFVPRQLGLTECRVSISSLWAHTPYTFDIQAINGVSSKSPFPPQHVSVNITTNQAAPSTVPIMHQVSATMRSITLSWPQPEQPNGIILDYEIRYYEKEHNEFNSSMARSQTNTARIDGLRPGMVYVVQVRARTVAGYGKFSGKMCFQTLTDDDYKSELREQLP
Procedure, shortened: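 EphrinB2-Fc captured on AHC biosensors, then soluble His-tagged EphB ectodomain (25 nM for % inhibition runs) associated 80 s and dissociated 500 s in PBS, 0.05% Tween-20, 1% DMSO ± compound. Compounds tested at 0.1–3.2 μM with a 10 μM max standard; IC50 from AUC of full traces or at 75 s and 135 s.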

[1] = Absolute AUC/IC50, Table A, EphrinB2-EphB2
[2] = Absolute Association IC50 (300 sec), Table A, EphrinB2-EphB2
[3] = Absolute Dissociation IC50 (450 sec), Table A, EphrinB2-EphB2
[4] = Relative AUC/IC50, Table A, EphrinB2-EphB2, compound 7: association only
[5] = Relative Association IC50 (300 sec), Table A, EphrinB2-EphB2
[6] = Relative Dissociation IC50 (450 sec), Table A, EphrinB2-EphB2
[7] = tetramerization inhibitor IC50 (relative), association step, surmountable tetramer
[8] = EphB1, 25 nM EphB1, 3.2 μM compound, A20-I as max control, 0* = less than 0, no inhibition, read-out: % Inhibition: Association + Dissociation (160 sec)
[9] = EphB1, 25 nM EphB1, 3.2 μM compound, A20-I as max control, 0* = less than 0, no inhibition, read-out: % Inhibition: Association ONLY (80 sec)

| Compound | IC50 (EphrinB2-EphB2; [1]) | IC50 (EphrinB2-EphB2; [2]) [µM] | IC50 (EphrinB2-EphB2; [3]) | IC50 (EphrinB2-EphB2; [4]) | IC50 (EphrinB2-EphB2; [5]) | IC50 (EphrinB2-EphB2; [6]) | IC50 (EphrinB2-EphB2; [7]) [µM] | inhibition at 3.2 µM (EphrinB2-EphB1; [8]) [%] | inhibition at 3.2 µM (EphrinB2-EphB1; [9]) [%] | EphB1 Inhibition Percent, Inhibition of Association ONLY (EphrinB2-EphB1) [%] | EphB1 Inhibition Percent, Inhibition of Association-Dissociation (EphrinB2-EphB1) | further results |
| --- | --- | --- | --- | --- | --- | --- | --- | --- | --- | --- | --- | --- |
| Oc1c(I)cc(CN2CCOCC2)c2cccnc12 [Compound 7, 7-iodo-5-(morpholinomethyl)quinolin-8-ol] | > 1.6 µM | 1.5 | > 1.6 µM | 0.44 µM | 0.89 µM | 1.07 µM | ~0.6 | 46.8 | 29.5 | – | – | tetramerization inhibitor activity (EphrinB2-EphB2): stronger tetramerization inhibitor compared to A20; % Inhibited (AUC), Association + Dissociation (EphrinB2-EphB1; EphB1, 0-160 sec, 50 nM, 10 μM compound, Table 4): 38.4%; % Inhibition: Association + Dissociation (160 sec) (EphrinB2-EphB1; EphB1, 25 nM EphB1, 3.2 μM compound, A20-I as max control, 0* = less than 0, no inhibition): 53.1% and 44.3% and 52.4%; % Inhibited (AUC), Association (EphrinB2-EphB1; EphB1, 50 nM, 10 μM compound, Table 4): 25.0%; inhibition (EphrinB2-EphB1; EphB1, 10 μM 2×HCl salt, read-out: % Inhibited (AUC), Association): 36.6%; IC50 (EphrinB2-EphB1; EphB1, Association (75″), read-out: Absolute IC50): > 3.2 µM; IC50 (EphrinB2-EphB1; EphB1, Association (75″), read-out: Relative IC50): 0.85 µM; IC50 (EphrinB2-EphB1; EphB1, Association (AUC), read-out: Absolute IC50): > 3.2 µM; IC50 (EphrinB2-EphB1; EphB1, Association (AUC), read-out: Relative IC50): 0.98 µM; IC50 (EphrinB2-EphB1; EphB1, Dissociation (135″), read-out: Absolute IC50): 0.85 µM; IC50 (EphrinB2-EphB1; EphB1, Dissociation (135″), read-out: Relative IC50): 0.44 µM; IC50 (EphrinB2-EphB1; EphB1, Full AUC, read-out: Absolute IC50): 1.48 µM; IC50 (EphrinB2-EphB1; EphB1, Full AUC, read-out: Relative IC50): 0.24 µM; inhibition (EphrinB2-EphB1; EphB1, first 160 sec, 10 μM 2×HCl salt, read-out: % Inhibited (AUC), Association + Dissociation): 48.5%; inhibition (EphrinB2-EphB1; EphB1, highest dose, typically 3.2 μM, read-out: Association (% Inhibited (AUC))): 32.6%; inhibition (EphrinB2-EphB1; EphB1, highest dose, typically 3.2 μM, read-out: Association + Dissociation (% Inhibited (AUC))): 49.4% |
| O=C(Cc1ccccc1)Nc1ccc(N2CCN(Cc3ccc(O)c4ncccc34)CC2)cc1 [Compound 51, N-(4-(4-((8-hydroxyquinolin-5-yl)methyl)piperazin-1-yl)phenyl)-2-phenylacetamide] | 1.51 µM | 1.45 | 1.29 µM | 1.02 µM | 0.98 µM | 0.93 µM | ~1.2 | 61.2 | 52.7 | – | – | disruption of unsurmountable tetramer (EphrinB2-EphB2): able to inhibit a small amount of the EphrinB2-EphB2 unsurmountable tetramer |
| O=S1(=O)CCN(Cc2ccc(O)c3ncccc23)CC1 [Compound 15, 4-((8-hydroxyquinolin-1-ium-5-yl)methyl)thiomorpholin-4-ium 1,1-dioxide chloride] | > 1.6 µM | > 1.6 | > 1.6 µM | 0.62 µM | > 1.6 µM | 1.15 µM | – | – | – | 16.8 | 28.6% | – |
| Oc1ccc(CN2CCN(c3ccc(F)cc3F)CC2)c2cccnc12 [Compound 62, 5-((4-(2,4-difluorophenyl)piperazin-1-yl)methyl)quinolin-8-ol] | > 1.6 µM | > 1.6 | > 1.6 µM | > 1.6 µM | > 1.6 µM | > 1.6 µM | – | – | – | 17.9 | 14.7% | – |
| COc1ccccc1N1CCN(Cc2cc(Br)c(O)c3ncccc23)CC1 [Compound 70, 7-bromo-5-((4-(2-methoxyphenyl)piperazin-1-yl)methyl)quinolin-8-ol] | > 1.6 µM | 1.2 | 0.36 µM | 0.17 µM | 0.18 µM | 0.19 µM | ~0.2 | 58.8 | 47.2 | – | – | – |
| Oc1c(Br)cc(CN2CCOCC2)c2cccnc12 [Compound 5, 7-bromo-5-(morpholinomethyl)quinolin-8-ol] | – | – | – | – | – | – | ~0.5 | 45.2 | 25.1 | – | – | IC50 (EphrinB2-EphB2; absolute IC50, association, dissociation and AUC, A20 salt): ~1 µM and 1 µM; IC50 (EphrinB2-EphB2; effective/relative IC50, A20 salt): < 1 µM; association slope (EphrinB2-EphB2; in presence of A20, role: inhibitor, 20° without): 10 °; IC (maximum) (EphrinB2-EphB2; read-out: concentration producing maximum inhibition): 1 µM; inhibition at 1 µM (EphrinB2-EphB2; read-out: reduction of association response): ~50% |
| O=[N+]([O-])c1cc(CN2CCS(=O)(=O)CC2)c2cccnc2c1O [Compound 20, 4-((8-hydroxy-7-nitroquinolin-5-yl)methyl)thiomorpholine 1,1-dioxide] | > 3.2 µM | > 3.2 | > 3.2 µM | – | 2.14 µM | 2.09 µM | > 3 | 36 | 24 | – | – | inhibition of EphB1-EphrinB2 binding (EphrinB2-EphB1; association step, general): 25% |
| Oc1ccc(CN2CCN(Cc3ccc(Br)cc3)CC2)c2cccnc12 [Compound 42, 5-((4-(4-bromobenzyl)piperazin-1-yl)methyl)quinolin-8-ol] | 2.51 µM | – | 1.91 µM | 0.93 µM | 1.02 µM | 1.05 µM | – | 36.5 | 19.9 | – | – | – |
| COc1ccccc1N1CCN(Cc2cc(I)c(O)c3ncccc23)CC1 [Compound 71, 7-iodo-5-((4-(2-methoxyphenyl)piperazin-1-yl)methyl)quinolin-8-ol] | 0.42 µM and 0.53 µM | 0.68 | 0.62 µM and 0.65 µM | 0.38 µM and 0.41 µM | 0.47 µM and 0.34 µM | 0.48 µM and 0.51 µM | – | 52.3 | 39.6 | – | – | tetramerization inhibitor activity (EphrinB2-EphB2): exhibit strong IC50 values; disruption of unsurmountable tetramer (EphrinB2-EphB2; listed as 3511-1): fairly strong ability to disrupt some of the unsurmountable tetramer; disruption of unsurmountable tetramer (EphrinB2-EphB2; listed as 3511-I): able to inhibit a small amount of the EphrinB2-EphB2 unsurmountable tetramer |
| Oc1c(Cl)cc(CN2CCOCC2)c2cccnc12 [Compound 4, 4-((7-chloro-8-hydroxyquinolin-1-ium-5-yl)methyl)morpholin-4-ium chloride] | 0.93 µM | 1.26 | 0.76 µM | 0.51 µM | 0.53 µM | 0.55 µM | – | – | – | 34.2 | 48.4% | – |
| Oc1c(CN2CCCCC2)cc(Cl)c2cccnc12 [Compound 76, 5-chloro-7-(piperidin-1-ylmethyl)quinolin-8-ol, reference compound] | – | – | – | – | – | – | – | – | – | – | 51.5% and 43.1% | – |
| Oc1ccc(CN2CCCCC2)c2cccnc12 [Compound 68, 5-(piperidin-1-ylmethyl)quinolin-8-ol, reference compound] | – | – | – | – | – | – | – | – | – | 28.3 | 46.8% | – |
| Oc1ccc(CN2CCOCC2)c2cccnc12 [Compound 1, 5-(morpholinomethyl)quinolin-8-ol] | > 1.6 µM | > 1.6 | > 1.6 µM | > 1.6 µM | > 1.6 µM | > 1.6 µM | > 1.6 | – | – | – | – | tetramerization inhibitor activity (EphrinB2-EphB2): only weak ability to inhibit formation of the EB2-EphB2 tetramer |
| COCc1cc(CN2CCN(C)CC2)c(O)c2ncccc12 [Compound 77, 5-(methoxymethyl)-7-((4-methylpiperazin-1-yl)methyl)quinolin-8-ol, reference compound] | – | – | – | – | – | – | – | – | – | 16.9 | 35.0% | – |
